According to patent publication US20140255517A1, “MANAGING POST-TRAUMATIC STRESS DISORDER” (EMORY UNIVERSITY, priority 2013, published 2014):
Entries after “also recorded” stand apart in the source; their conditions may differ.

Columns and labels:
Format in all cases: in vivo, mice
[1] = Baseline blood pressure measured by radiotelemetry
Description: Distance traveled during open-field testing (B) and percent time in open arms of elevated plus maze test of vehicle (C) (n=6-8/group).
In order to determine whether inhibition of the renin-angiotensin system is involved in modulating fear directly or indirectly, both acute and chronic inhibition of the angiotensin type 1 receptor (AT1R) were examined using the AT1R antagonist losartan (1 mg/kg and 10 mg/kg). […] A dose of 10 mg/kg is commonly used in rodents, however the effects on baseline blood pressure are mixed. When given acutely or chronically, some studies show reductions in baseline blood pressure while others show no effect.

[2] = system: corticosterone; assay: Plasma corticosterone after 30 minutes of restraint stress; details: losartan for 2 weeks vs vehicle; 30 minutes restraint stress
Description: (§1) The hypothalamic pituitary axis (HPA) stress axis could influence the level of learned fear. In order to examine the chronic effects of losartan on the HPA, stress response was examined as well as plasma renin, a measure of endogenous angiotensin II activity. Animals were exposed to 30 minutes of restraint stress and plasma levels of corticosterone and renin measured.

[3] = system: plasma renin; assay: Plasma renin activity after 30 minutes of restraint stress; details: losartan for 2 weeks vs vehicle; 30 minutes restraint stress
Description: as §1
(§2) As an index of central HPA neuronal activation, c-Fos activation was then examined in the paraventricular nucleus (PVN).

[4] = system: AT1R mRNA; assay: Amygdala AT1R mRNA expression after extinction training (RT-qPCR); details: chronic losartan vs vehicle, following extinction training; t(11)=2.8, P<0.05
[5] = Anxiety-like behavior in elevated plus maze and open field tests
Description: Distance traveled during open-field testing (B) and percent time in open arms of elevated plus maze test of vehicle (C) (n=6-8/group). To determine whether losartan affects baseline levels of generalized anxiety, animals were tested in the elevated plus and open field mazes.

[6] = system: animal model of PTSD-like symptoms; assay: Cued Pavlovian fear conditioning, extinction training and extinction retention after acute losartan
Description: 24 hr following fear acquisition, losartan (1 mg/kg or 10 mg/kg i.p) was given prior to extinction training (B, E; n=20-25/group). 24 hr following extinction training, and in the absence of drug, mice were tested for extinction retention of learned fear, expressed as total average freezing and in blocks of 5 CS tones (C,D,F,G). To further understand the mechanism by which angiotensin II blockers reduce PTSD symptoms, the effects of the selective AT1R antagonist losartan were examined in an animal model of PTSD-like symptoms. Animals were cue-fear trained using Pavlovian fear conditioning consisting of five pairings of a conditioned stimulus (CS) tone (12 kHz) co-terminating with a shock or unconditioned stimulus (US). […] Twenty-four hours later, the effects of losartan were examined on fear expression (also considered the extinction training session) to the presentation of 15 trials of CS cues in a different context. Groups were given either losartan (1 mg/kg or 10 mg/kg i.p.) or saline 40 minutes prior to fear expression/extinction training. […] Therefore in a separate group of animals, a higher dose of losartan (10 mg/kg i.p.) was examined. […] Twenty-four hours later in the absence of drug, long-term fear memory was assessed (extinction retention).

[7] = system: c-Fos; assay: c-Fos activation in the paraventricular nucleus after restraint stress; details: chronic losartan vs vehicle, t(10)=2.3, P<0.05
Description: as §2

[8] = system: animal model of PTSD-like symptoms; assay: Cued Pavlovian fear conditioning and extinction after chronic losartan infusion by osmotic mini-pump
Description: Extinction training/fear expression was tested and total average freezing within the session (B) and represented in blocks of 5 CS tones (C) 24 hr following fear acquisition.
The chronic effects of AT1 R antagonism on the extinction of fear to were examined. Two-week osmotic mini-pumps were implanted and losartan (10 mg/kg/day) was subcutaneously infused. […] On day 10, animals underwent Pavlovian fear conditioning as described above.

[9] = chronic losartan 10 mg/kg/day vs vehicle

Q: For CCCCc1nc(Cl)c(CO)n1Cc1ccc(-c2ccccc2-c2nn[nH]n2)cc1 [losartan], which baseline blood pressure ([1]; acute losartan 10 mg/kg i.p. vs saline) is on record?
A: no effect on baseline blood pressure

Q: And the baseline blood pressure [1, 9]?
A: no differences between groups

Q: And the “plasma corticosterone levels following restraint stress” value [2]?
A: unaltered by losartan

Q: What about the “plasma renin activity following restraint stress” value [3] of the same compound?
A: unchanged by losartan

Q: What about the “amygdala AT1R mRNA expression” value [4] of the same compound?
A: significantly reduced amygdala AT1R mRNA expression; also recorded: decreased amygdala AT1 receptor mRNA expression

Q: And the “anxiety-like behavior (distance traveled, time spent in open arms)” value ([5]; acute losartan 10 mg/kg i.p. 40 minutes prior to test, vs saline)?
A: No differences in anxiety-like behavior

Q: What about the “generalized anxiety (percent time in center and distance traveled, open field test)” value [5, 9] of the same compound?
A: no differences between groups

Q: And the “total average freezing during extinction training/fear expression” value ([6]; losartan 1 mg/kg i.p. 40 minutes prior to extinction training, vs saline)?
A: no difference in total average freezing

Q: And the “freezing during extinction retention testing” value ([6]; losartan 1 mg/kg i.p., tested 24 hours after extinction training in the absence of drug, vs saline)?
A: no freezing differences between groups

Q: And the “total average freezing during extinction training/fear expression” value ([6]; losartan 10 mg/kg i.p. 40 minutes prior to extinction training, vs saline)?
A: no differences between groups in total average freezing

Q: What about the “total overall freezing during extinction retention” value ([6]; losartan 10 mg/kg i.p., 24 hours later in the absence of drug, t(48)=2.9, P<0.01) of the same compound?
A: total overall freezing was significantly reduced

Q: And the “freezing to CS presentation during extinction retention testing (repeated-measures 2 way ANOVA, main effect of treatment)” value ([6]; losartan 10 mg/kg i.p., F1,144=14.6, P<0.001)?
A: significantly less freezing to CS presentation

Q: And the “freezing in blocks of five CS tone presentations during extinction retention (Bonferroni post hoc)” value ([6]; losartan 10 mg/kg i.p., P<0.05)?
A: significant reductions in freezing during the first and third blocks

Q: And the “c-Fos activation in the paraventricular nucleus (PVN)” value [7]?
A: reduced c-Fos activation in the PVN; also recorded: less c-Fos activation in the paraventricular nucleus

Q: And the “acquisition of fear (percent freezing)” value ([8]; losartan 10 mg/kg/day subcutaneous infusion, conditioning on day 10, vs vehicle)?
A: no difference in the acquisition of fear; also recorded: acquired fear similarly to control groups

Q: What about the “fear expression: total average freezing or blocks of 5 CS trials” value ([8]; losartan 10 mg/kg/day subcutaneous infusion, 24 hrs after fear acquisition) of the same compound?
A: no significant difference in total average freezing

Q: What about the “extinction retention of fear memory over the total average freezing period” value ([8]; losartan 10 mg/kg/day subcutaneous infusion, t(35)=2.4, P<0.05) of the same compound?
A: enhanced extinction retention of fear memory

Q: What about the “freezing to CS presentation during extinction retention testing (repeated-measures ANOVA, main effect of treatment)” value ([8]; losartan 10 mg/kg/day, F1,108=8.8, P<0.005) of the same compound?
A: significantly less freezing to CS presentation

Q: What about the “freezing in blocks of five CS tone presentations during extinction retention (Bonferroni post hoc)” value ([8]; losartan 10 mg/kg/day, P<0.05) of the same compound?
A: significant reductions in freezing during the second block
